Patent US7902148B2, “Use of an echinocandin antifungal agent in combination with a glycopeptide antibacterial agent” (Theravance, Inc., priority 2003, dated 2011)

Columns and labels:
C. krusei ATCC 32672 = experiment: Checkerboard MIC assay for FICI; type: cell-based, Candida krusei
Text: (§1) The following assay was used to determine the minimum inhibitory concentration (MIC) and fractional inhibitory concentration index (FICI) for combinations of antifungal agents and antibacterial agents. This assay and methods for calculating FICI are well known in the art. See, for example, Eliopoulos, E. G. and R. Moellering, Jr. “Antimicrobial Combinations” in Antibiotics in Laboratory Medicine, edited by V. Lorian, 4th Ed., Williams & Wilkins, Baltimore, Md., pp. 330-396 (1996); Shalit et al., Antimicrobial Agents and Chemotherapy 47(4):1416-1418 (2003); or Afeltra et al., Antimicrobial Agents and Chemotherapy 46(10):3323-3326 (2002).
(§2) Using a checkerboard method, a 2-fold dilution 100× final concentration master plate was prepared using a 96-well U-shape microtiter plate and an appropriate solvent. In the “checkerboard” method, a microtiter plate is divided into “columns” in which each well in the column contains the same amount of an antifungal agent (Compound A) being diluted along the x-axis, and “rows” in which each well in the row contains the same amount of a glycopeptide antibacterial agent (Compound B) being diluted on the γ-axis. Also included is a row (or column) for Compound A or B alone. The dilutions used in the checkerboard are exponential (by powers of two). The result is that each well in the microtiter plate contains a unique concentration of the two compounds being tested.
(§3) A matrix 2× final concentration was performed by transferring 30 μL of 100× Compound A and Compound B into a 1,440 μL RPMI in deep wells (one deep well per drug combination). After mixing, 100 μL of 2× drug combinations were distributed into 96-well microtiter plates. Compound A was diluted from Column 1 starting at 1,600 μg/mL to Column 11 (1.6 μg/mL). Wells in Column 1 contained a final concentration (after inoculum was added) of 16 μg/mL of Compound A; wells in Column 2 contained a final concentration of 8 μg/mL of Compound A; wells in Column 3 contained a final concentration of 4 μg/mL of Compound A; etc. Compound A was not added to Column 12, so Column 12 contained only Compound B.
(§4) Compound B was diluted from row A starting at 6,400 μg/mL down to row G (100 μg/mL). Wells in Row A contained a final concentration of 64 μg/mL of Compound B; Row B contained a final concentration of 32 μg/mL of Compound B; Row C contained a final concentration of 16 μg/mL of Compound B; etc. Compound B was not added to Row H, so Row H only contained Compound A.
(§5) In most cases, MIC of the glycopeptide antibacterial compound alone was >64 μg/mL. In order to get an accurate measurement, a standard MIC assay using NCCLS protocols was performed with an extended concentration range of from 256 μg/mL to 0.25 μg/mL. […]

C. tropicalis ATCC 750 = experiment: Checkerboard MIC assay for FICI; type: cell-based, Candida tropicalis
Text: as §1, §2, §3, §4, §5

[1] = test system: C. parapsilosis ATCC 22019; experiment: Checkerboard MIC assay for FICI; type: cell-based, Candida parapsilosis
Text: as §1, §2, §3, §4, §5

various strains of fungi = experiment: Assay for determining MIC and FICI, summary statements over strains; type: cell-based
Text: as §1
FICI values are typically evaluated using the following criteria:
Using a checkerboard method, a 2-fold dilution 100× final concentration master plate was prepared using a 96-well U-shape microtiter plate and an appropriate solvent. In the “checkerboard” method, a microtiter plate is divided into “columns” in which each well in the column contains the same amount of an antifungal agent (Compound A) being diluted along the x-axis, and “rows” in which each well in the row contains the same amount of a glycopeptide antibacterial agent (Compound B) being diluted on the γ-axis. […]
The calculated value for the FICI of the combined test compounds was compared to the following standards in certain embodiments: […]

C. glabrata ATCC 200918 = experiment: Checkerboard MIC assay for FICI; type: cell-based, Candida glabrata
Text: as §1, §2, §3, §4, §5

C. albicans ATCC 24433 = experiment: Checkerboard MIC assay for FICI; type: cell-based, Candida albicans
Text: as §1, §2, §3, §4, §5

C. neoformans ATCC 56991 = experiment: Checkerboard MIC assay for FICI; type: cell-based, Cryptococcus neoformans
Text: as §1
(§6) Using a checkerboard method, a 2-fold dilution 100× final concentration master plate was prepared using a 96-well U-shape microtiter plate and an appropriate solvent. In the “checkerboard” method, a microtiter plate is divided into “columns” in which each well in the column contains the same amount of an antifungal agent (Compound A) being diluted along the x-axis, and “rows” in which each well in the row contains the same amount of a glycopeptide antibacterial agent (Compound B) being diluted on the γ-axis. Also included is a row (or column) for Compound A or B alone. The dilutions used in the checkerboard are exponential (by powers of two). […]

G. candidum ATCC 62231 = experiment: Checkerboard MIC assay for FICI; type: cell-based, Geotricium candidum; details: combination with caspofungin
Text: as §1, §6

A. fumigatus ATCC 14110 = experiment: Checkerboard MIC assay for FICI; type: cell-based, Aspergillus fumigatus; details: combination with caspofungin
Text: as §1, §6

P. boydii ATCC 38283 = experiment: Checkerboard MIC assay for FICI; type: cell-based, Pseudallescheria boydii; details: combination with caspofungin
Text: as §1, §6

[2] = test system: M. circinelloides ATCC 26759; experiment: Checkerboard MIC assay for FICI; type: cell-based, Mucor circinelloides; details: combination with caspofungin
Text: as §1, §6

[3] = test system: S. prolificans ATCC 200543; experiment: Checkerboard MIC assay for FICI; type: cell-based; details: combination with caspofungin
Text: as §1, §6

A. terreus ATCC 46941 = experiment: Checkerboard MIC assay for FICI; type: cell-based; details: combination with caspofungin
Text: as §1, §6

A. flavus ATCC 64025 = experiment: Checkerboard MIC assay for FICI; type: cell-based, Aspergillus flavus; details: combination with caspofungin
Text: as §1, §6

[4] = test system: F. moniliforme ATCC 38159; experiment: Checkerboard MIC assay for FICI; type: cell-based, Fusarium moniliforme; details: combination with caspofungin
Text: as §1, §6

[5] = test system: R. miscrosporus ATCC 14050; experiment: Checkerboard MIC assay for FICI; type: cell-based, Rhizopus microsporus; details: combination with caspofungin
Text: as §1, §6

SMILES	FICI (C. krusei ATCC 32672; combination with caspofungin)	FICI (C. tropicalis ATCC 750; combination with caspofungin)	FICI ([1]; combination with caspofungin)	FICI (C. glabrata ATCC 200918; combination with caspofungin)	FICI (C. albicans ATCC 24433; combination with caspofungin)	FICI (C. krusei ATCC 32672; combination with Compound 1)	FICI (C. glabrata ATCC 200918; combination with Compound 1)	FICI (C. tropicalis ATCC 750; combination with Compound 1)	FICI ([1]; combination with Compound 1)	FICI (C. albicans ATCC 24433; combination with Compound 1)	also measured
CN[C@H](CC(C)C)C(=O)N[C@H]1C(=O)N[C@@H](CC(N)=O)C(=O)N[C@H]2C(=O)N[C@H]3C(=O)N[C@H](C(=O)N[C@H](C(=O)O)c4cc(O)cc(O)c4-c4cc3ccc4O)[C@H](O)c3ccc(c(Cl)c3)Oc3cc2cc(c3O[C@@H]2O[C@H](CO)[C@@H](O)[C@H](O)[C@H]2O[C@H]2C[C@](C)(N)[C@H](O)[C@H](C)O2)Oc2ccc(cc2Cl)[C@H]1O [Vancomycin]	2.00	2.00	2.00	2.00	2.00	–	–	–	–	–	effect of the combination with caspofungin (various strains of fungi; strains of Table 1, FICI criteria of b187): not synergistic or additive
C[C@@H](c1ncncc1F)[C@](O)(Cn1cncn1)c1ccc(F)cc1F [Voriconazole, voriconazole]	–	–	–	–	–	1.13	1.13	–	–	–	–
CC[C@H](C)C[C@H](C)CCCCCCCCC(=O)N[C@H]1C[C@@H](O)[C@@H](NCCN)NC(=O)[C@@H]2[C@@H](O)CCN2C(=O)[C@H]([C@H](O)CCN)NC(=O)[C@H]([C@H](O)[C@@H](O)c2ccc(O)cc2)NC(=O)[C@@H]2C[C@@H](O)CN2C(=O)[C@H]([C@@H](C)O)NC1=O [caspofungin]	–	–	–	–	–	–	–	–	–	–	activity of caspofungin against C. neoformans (C. neoformans ATCC 56991; caspofungin alone): no activity
CCCCCCCCCCNCCN[C@@]1(C)C[C@H](O[C@H]2[C@H](Oc3c4cc5cc3Oc3ccc(cc3Cl)[C@@H](O)[C@@H](NC(=O)[C@@H](CC(C)C)NC)C(=O)N[C@@H](CC(N)=O)C(=O)N[C@H]5C(=O)N[C@H]3C(=O)N[C@H](C(=O)N[C@H](C(=O)O)c5cc(O)c(CNCP(=O)(O)O)c(O)c5-c5cc3ccc5O)[C@H](O)c3ccc(c(Cl)c3)O4)O[C@H](CO)[C@@H](O)[C@@H]2O)O[C@@H](C)[C@H]1O [Compound 1, telavancin]	0.31	0.26	0.38	0.28	0.27	–	–	–	–	–	FICI (G. candidum ATCC 62231): 0.31; FICI (A. fumigatus ATCC 14110): 0.28; FICI (C. neoformans ATCC 56991; combination with caspofungin, C. neoformans ATCC 56991, checkerboard): 0.75; FICI (P. boydii ATCC 38283): 0.31; FICI [2]: 2; FICI [3]: 1.25; FICI (A. terreus ATCC 46941): 0.31; effect of the combination with caspofungin (various strains of fungi; all yeast strains tested, except C. neoformans, FICI ≦ 0.5 = synergistic): synergistic; FICI (A. flavus ATCC 64025): 0.16; FICI [4]: 2; FICI [5]: 2
Clc1ccc(COC(Cn2ccnc2)c2ccc(Cl)cc2Cl)c(Cl)c1 (stereo not drawn) [Miconazole]	–	–	–	–	–	–	–	2.00	2.00	2.00	–
OC(Cn1cncn1)(Cn1cncn1)c1ccc(F)cc1F [Fluconazole]	–	–	–	–	–	2.00	2.00	2.00	2.00	2.00	–
